Results published in patent US5212166A, “Unsaturated 17β-subsituted 3-carboxy steroids” (Farmitalia Carlo Erba S.r.l., priority 1991, dated 1993).
pIC50: −log10 of the molar value.

Target: T1, human prostatic 5α-reductase (Homo sapiens, UniProt P31213)
T1 construct: from homogenates of human benign prostatic hypertrophyc tissue as the enzyme source; from tissue; host or cells: human benign prostatic hypertrophic tissue, particulate fraction (nuclei, microsomes and mitochondria)
T1 sequence (P31213 1-254): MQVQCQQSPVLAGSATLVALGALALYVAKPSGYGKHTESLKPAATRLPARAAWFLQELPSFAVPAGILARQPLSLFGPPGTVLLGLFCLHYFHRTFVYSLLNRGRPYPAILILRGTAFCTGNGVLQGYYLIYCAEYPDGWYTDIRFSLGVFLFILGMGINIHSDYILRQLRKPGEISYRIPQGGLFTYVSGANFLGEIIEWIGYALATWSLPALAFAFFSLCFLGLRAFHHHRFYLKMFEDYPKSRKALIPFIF
Experiment: Inhibition of 5α-reductase in vitro, particulate fraction of human benign prostatic hypertrophic tissue homogenate
Format: biochemical
Conditions: 1 μM [4-14C]testosterone, 5 mM NADPH, pH 5.5, 30 min at 37° C., read-out: concentration producing 50% inhibition on human prostatic 5α-reductase (IC50)
Method: For example, the inhibitory effect of the compounds of the invention on 5α-reductase was determined in vitro, according to the test procedure reported herebelow.
Inhibition of 5α-reductase was evaluated using the particulate fraction (containing nuclei, microsomes and mitochondria) from homogenates of human benign prostatic hypertrophyc tissue as the enzyme source.
The particulate fraction was prepared centrifuging prostate homogenate at 140,000 × g.
The resulting pellet, washed several times, was resuspended in buffer and stored at -80° C. in aliquots containing 10 mg protein/ml.
The assay for 5α-reductase was done in a final volume of 0.5 ml, containing 1 mM dithiothreitol, 40 mM TRIS-HCl buffer pH 5.5, 5 mM NADPH, 1 μM [4-^14 C]testosterone, 0.3 mg protein of the prostate particulate fraction and various concentrations of the inhibitors. […] Radioactivity on the plate was scanned and analyzed from quantitative plots printed by a TLC-analizer (Berthold). The fractional 5α-reduction of testosterone was calculated by relating the ^14 C-radioactivity in the 5α-reduced metabolites 5α-dihydrotestosterone, 3α- and 3β-androstanediols) regions to the total radioactivity in the testosterone and 5α-reduced metabolites regions. […]

Structure (SMILES): CC(C)NC(=O)N(C(=O)[C@H]1CC[C@H]2[C@@H]3CC=C4C=C(C(=O)O)CC[C@]4(C)[C@H]3CC[C@]12C)C(C)C [17β-[N-isopropyl-N-(N-isopropylcarbamoyl)carbamoyl]androsta-3,5-diene-3-carboxylic acid]
- pIC50: 8.52
